Source: US4294843A, “Anti-protozoal oxadiazole derivatives” (Burroughs Wellcome Co., priority 1978, dated 1981)

What was measured:
[1] = LD50 in female rats, oral by gavage; settings: rat, in vivo, 10% w/v suspension in corn oil
Method: 1. The LD50 of the compound of Example 3, both as the free base and the hydrochloride salt was determined in female rats by standard techniques the compound being administered as a 10% w/v suspension in corn oil orally by gavage.

LD50 in mice, oral = settings: mouse, in vivo, suspension of 0.25% Celacol
Method: 2. The LD50 of the compound of Example 3 was determined in mice by standard techniques, the compound being administered orally in a suspension of 0.25% Celacol.

P. berghei = assay: percentage inhibition of P. berghei (blood parasitaemia) in mice, seven oral doses; assay type: in vivo; settings: Plasmodium berghei, 96 h, parasitaemia on fourth day; for inhibition in vivo at 10 mg/kg: 7 × 10 mg/kg oral; for inhibition in vivo at 100 mg/kg: 7 × 100 mg/kg oral
Source text: Groups of five mice were inoculated intraperitoneally with the normal strain of P. berghei. The mice on test received seven oral doses of drug beginning on the afternoon of the day of infection then twice a day for the following three days. Blood parasitaemias were estimated on the fourth day and compared with those of the untreated controls.
The results are given in Table 1, the results being expressed as percentage inhibition of P. berghei.

SMILES: Cl.Nc1ccccc1SCc1ncon1 [Example 3 - HCl salt, 3-(2-Aminophenylthiomethyl)-1,2,4-oxadiazole hydrochloride]
- LD50 [1]: 63 mg/kg

SMILES: Nc1ccccc1SCc1ncon1 [Example 3, 3-(2-Aminophenylthiomethyl)-1,2,4-oxadiazole]
- LD50 [1]: 79.4 mg/kg
- LD50 (LD50 in mice, oral): ~45 mg/kg

SMILES: Clc1ccc(CNc2ccccc2SCc2ncon2)cc1 [Example 42, 3-[2-(4-Chlorobenzylamino)phenylthiomethyl]1,2,4-oxadiazole]
- inhibition in vivo at 10 mg/kg (P. berghei): 93%
- inhibition in vivo at 100 mg/kg (P. berghei): 100%

SMILES: OC(CNc1ccccc1SCc1ncon1)COc1ccccc1 (centres unmarked) [Example 43, 2-Hydroxy-1-[2-(1,2,4-oxadiazol-3-ylmethylthio)anilino]-3-phenoxypropane]
- inhibition in vivo at 10 mg/kg (P. berghei): 24%
- inhibition in vivo at 100 mg/kg (P. berghei): 60%

SMILES: O=[N+]([O-])c1ccccc1SNc1ccccc1SCc1ncon1 [Example 44, 3-[2-(2-Nitrophenylsulphenylamino)phenyl]thiomethyl-1,2,4-oxadiazole]
- inhibition in vivo at 100 mg/kg (P. berghei): 27%

SMILES: CCN(CC)c1ccccc1SCc1ncon1 [Example 45, 3-(2-Diethylaminophenylthiomethyl)-1,2,4-oxadiazole]
- inhibition in vivo at 10 mg/kg (P. berghei): 84%
- inhibition in vivo at 100 mg/kg (P. berghei): 100%

SMILES: CCN(C)c1ccccc1SCc1ncon1 [Example 46, 3-[2-(N-ethyl-N-methyl)aminophenylthiomethyl]1,2,4-oxadiazole]
- inhibition in vivo at 100 mg/kg (P. berghei): 98%

SMILES: CN(C)c1ccccc1SCc1noc(CSc2ccc(Cl)cc2)n1 [Example 48, 5-(4-chlorophenylthiomethyl)-3-(2-dimethylaminophenylthiomethyl)-1,2,4-oxadiazole]
- inhibition in vivo at 10 mg/kg (P. berghei): 22%
- inhibition in vivo at 100 mg/kg (P. berghei): 88%

SMILES: Nc1ccccc1SCC1=NOCN1 [Example 51, 3-(2-Aminophenylthiomethyl)-4,5-dihydro-1,2,4-oxadiazole]
- inhibition in vivo at 10 mg/kg (P. berghei): 63%

SMILES: Nc1cc(Cl)ccc1SCC1=NOCN1 [Example 52, 3-(2-Amino-4-chlorophenylthiomethyl)-4,5-dihydro-1,2,4-oxadiazole]
- inhibition in vivo at 10 mg/kg (P. berghei): 95%

SMILES: CN(C)c1ccccc1SCC1=NOCN1 [Example 53, 3-(2-Dimethylaminophenylthiomethyl)-4,5-dihydro-1,2,4-oxadiazole]
- inhibition in vivo at 10 mg/kg (P. berghei): 43%

SMILES: CN(C)c1ccccc1SCC(N)=NO [Example 56, 2-(2-Dimethylaminophenylthio)acetamidoxime]
- inhibition in vivo at 10 mg/kg (P. berghei): 100%
